The record followed here is US20080140138A1, “Inhibition of inflammatory cytokine production by stimulation of brain muscarinic receptors” (priority 2002, published 2008).

Assay [1] has as its system carrageenan-induced hindpaw edema. The assay can be described thus: Carrageenan-induced hindpaw edema. It is filed as in vivo, Lewis rats. To be noted: CNI-1493 5 μg/rat i.c.v., 1 h before carrageenan; edema 3 h post carrageenan. How it is done: Method of determining CNI-1493 receptor binding. CNI-1493 was tested at a single concentration (10 μM) in a panel of receptor binding assays by NovaScreen Biosciences Corporation (Hanover, Md.). Values were expressed as the percent inhibition of specific binding, and represented the average of duplicate tubes. Method of stereotactic intracerebroventricular injections. A rat model of intracerebroventricular (i.c.v.) injections was established in order to be able to directly deliver pharmacological agents into the brain of rats. This was necessary in order to separate drug effects on peripheral inflammation that occurred through central versus peripheral mechanisms. Lewis rats were anaesthetized with urethane (1 g/kg, i.p.) and xylazine (15 mg/rat, i.m. (intramuscular)). Rats were then placed in a stereotactic head frame (Stoelting, Wood Dale, Ill., USA). The incisor bar was adjusted until the plane defined by the lambda and bregma was parallel to the base plate. For i.c.v. injections the needle of a Hamilton syringe (25 μl) was positioned stereotactically above the lateral ventricle (0.2 mm and 1.5 mm posterior to bregma, 3.2 mm below the dura.) Solutions of the drugs tested were prepared in sterile endotoxin-free water, at the specified concentrations, and a 10-μl injection/rat was administered over 2 min, 1 h prior to either carrageenan injection, or to LPS.
The tested drugs, in either the carrageenan and/or LPS experiments, were: saline control; fluoxetine hydrochloride, (also known as Prozak) (0.01 mg/100 g); muscarine (50 μg/rat, 5 μg/rat, 0.5 μg/rat, 0.05 μg/rat, 0.005 μg/rat); 4-(N-[3-chlorophenyl]carbamoyloxy)-2-butynyltrimethylammonium chloride (also known as McN-A-343) (5 μg/rat); Muscarinic Toxin-3, (also known as MT-3) from Dendroaspis angusticeps snake venom (0.37 μg/rat); nicotine (10 μg/rat); CNI-1493 (1 μg/kg, 50 μg/rat); atropine (1 μg/kg, 5 μg/rat); CNI-1493 plus atropine (1 μg/kg of each of the drugs; 50 μg/rat, 5 μg/rat respectively); naloxone hydrochloride (2 μg/rat), CNI-1493 plus naloxone (50 μg/rat+5 μg/rat respectively); and morphine (20 μg/rat).
Method of carrageenan-induced hindpaw edema. Paw edema was induced in anaesthetized rats by injection of 1% solution of 1-carrageenan (100 μl) into the plantar surface of the left hindpaw. The right hindpaw was injected with the same volume of saline alone (as control). The thickness of the carrageenan-treated and saline-treated hindpaw was measured using a caliper at 3 h post carrageenan, and the difference between paw thickness calculated as an index of inflammation (paw swelling). Method of LPS injections and TNF determination. LPS (15 mg/kg, i.v.) was injected in the tail vein 1 h after drug injection. Blood was obtained 2 h post LPS injection by paraorbital bleeding. Serum TNF concentrations were determined by an L929 bioactivity assay. Method of assessing TNF by the L929 bioactivity assay. L929 cells were suspended in Dulbecco's minimal Eagle's medium (DMEM; GibcoBRL) supplemented with fetal bovine serum (10%; Hyclone) and penicillin/streptomycin (0.5%; Sigma Chemical Co.), and plated at 2×10^4 cells per well in 96-well flat-bottomed microtiter plates. After 24 h, media were respirated and replaced with medium containing cycloheximide (10 μg/ml; Sigma Chemical Co.) and the samples to be assayed/TNF standards. Plates were incubated overnight, at which time cell viability as a function of TNF concentration was assessed by the MTT assay. Absorbance values were converted to units per milliliter by comparison with a standard curve for rat TNF.
In a third set of experiments, rats were injected by i.c.v. means with either saline (n=4), CNI-1493 (5 μg/rat, n=3), CNI-1493 plus atropine (5 μg/rat each), or atropine (5 μg/rat). Carrageenan was given to the animals 1 h later, and paw edema was determined 3 h post carrageenan. […]

Assay [2] deals with LPS-induced serum TNF. The assay can be described thus: LPS-induced serum TNF after i.c.v. drug injection, L929 bioactivity assay. To be noted: 5 μg/rat i.c.v., 1 h before LPS 15 mg/kg i.v.; blood 2 h post LPS. It is filed as in vivo, Lewis rats.
Experimental: Method of stereotactic intracerebroventricular injections. […] Lewis rats were anaesthetized with urethane (1 g/kg, i.p.) and xylazine (15 mg/rat, i.m. (intramuscular)). Rats were then placed in a stereotactic head frame (Stoelting, Wood Dale, Ill., USA). The incisor bar was adjusted until the plane defined by the lambda and bregma was parallel to the base plate. For i.c.v. injections the needle of a Hamilton syringe (25 μl) was positioned stereotactically above the lateral ventricle (0.2 mm and 1.5 mm posterior to bregma, 3.2 mm below the dura.) Solutions of the drugs tested were prepared in sterile endotoxin-free water, at the specified concentrations, and a 10-μl injection/rat was administered over 2 min, 1 h prior to either carrageenan injection, or to LPS.
In one set of experiments, rats were injected by i.c.v. means with either saline (n=1), CNI-1493 (5 μg/rat, n=3), CNI-1493 plus atropine (5 μg/rat each), or atropine (5 μg/rat). LPS (15 mg/kg, i.v.) was given 1 h later. Blood was collected 2 h post LPS administration. Serum TNF was determined by the L929 assay.

Take `CC(=NNC(=N)N)c1cc(NC(=O)CCCCCCCCC(=O)Nc2cc(C(C)=NNC(=N)N)cc(C(C)=NNC(=N)N)c2)cc(C(C)=NNC(=N)N)c1.Cl.Cl.Cl.Cl` [CNI-1493, N,N′-bis(3,5-diacetylphenyl) decanediamide tetrakis (amidinohydrazone) tetrahydrochloride]: in assay [1], the “inhibition of carrageenan-induced paw edema” value is listed as “significantly inhibits”. Besides, in assay [2], the “inhibition of LPS-induced serum TNF levels” value is listed as “more than 80%”.
